{"source": "patent US9486449B2", "about": "“Cancer therapy” (priority 2007, dated 2016)", "key": {"[1]": {"molecular_target": "T1, binding of γ-tubulin to kinesin-14/HSET (Homo sapiens, UniProt Q9BW19)", "T1 sequence (Q9BW19 1-673)": "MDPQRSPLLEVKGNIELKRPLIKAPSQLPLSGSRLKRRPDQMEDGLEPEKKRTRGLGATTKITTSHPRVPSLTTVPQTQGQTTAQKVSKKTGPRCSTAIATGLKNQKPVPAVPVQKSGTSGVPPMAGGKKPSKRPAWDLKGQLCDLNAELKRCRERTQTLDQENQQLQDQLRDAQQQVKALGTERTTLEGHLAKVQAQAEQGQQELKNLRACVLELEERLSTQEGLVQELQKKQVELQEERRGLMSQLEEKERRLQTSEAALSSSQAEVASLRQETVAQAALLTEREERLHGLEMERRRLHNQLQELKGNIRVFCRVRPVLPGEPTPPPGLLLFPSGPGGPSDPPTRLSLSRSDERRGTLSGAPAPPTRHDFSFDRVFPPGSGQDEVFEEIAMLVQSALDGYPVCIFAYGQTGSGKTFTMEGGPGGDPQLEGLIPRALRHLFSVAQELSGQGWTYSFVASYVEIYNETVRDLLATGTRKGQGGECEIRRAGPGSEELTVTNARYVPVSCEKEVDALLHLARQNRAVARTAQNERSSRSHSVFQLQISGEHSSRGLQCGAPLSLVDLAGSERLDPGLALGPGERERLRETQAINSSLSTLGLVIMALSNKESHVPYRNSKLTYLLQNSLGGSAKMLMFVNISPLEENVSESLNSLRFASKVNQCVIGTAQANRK", "assay": "Co-IP of kinesin-14/HSET with γ-tubulin in MDA-MB-231 cells", "type": "cell-based", "settings": "48 hours, PJ-34 20 μM, Tiq-A 100 μM, Phen(6) 50 μM", "text": "Thus, PJ-34, Tiq-A and Phen interfered with the co-immunoprecipitation of HSET with γ-tubulin."}, "α-tubulin with γ-tubulin": {"tested_on": "α-tubulin with γ-tubulin", "assay": "Co-immunoprecipitation of α-tubulin with γ-tubulin in cancer cells", "type": "cell-based"}, "PARP-1": {"molecular_target": "PARP-1 (Homo sapiens, UniProt P09874)", "sequence (P09874 whole entry, species assumed)": "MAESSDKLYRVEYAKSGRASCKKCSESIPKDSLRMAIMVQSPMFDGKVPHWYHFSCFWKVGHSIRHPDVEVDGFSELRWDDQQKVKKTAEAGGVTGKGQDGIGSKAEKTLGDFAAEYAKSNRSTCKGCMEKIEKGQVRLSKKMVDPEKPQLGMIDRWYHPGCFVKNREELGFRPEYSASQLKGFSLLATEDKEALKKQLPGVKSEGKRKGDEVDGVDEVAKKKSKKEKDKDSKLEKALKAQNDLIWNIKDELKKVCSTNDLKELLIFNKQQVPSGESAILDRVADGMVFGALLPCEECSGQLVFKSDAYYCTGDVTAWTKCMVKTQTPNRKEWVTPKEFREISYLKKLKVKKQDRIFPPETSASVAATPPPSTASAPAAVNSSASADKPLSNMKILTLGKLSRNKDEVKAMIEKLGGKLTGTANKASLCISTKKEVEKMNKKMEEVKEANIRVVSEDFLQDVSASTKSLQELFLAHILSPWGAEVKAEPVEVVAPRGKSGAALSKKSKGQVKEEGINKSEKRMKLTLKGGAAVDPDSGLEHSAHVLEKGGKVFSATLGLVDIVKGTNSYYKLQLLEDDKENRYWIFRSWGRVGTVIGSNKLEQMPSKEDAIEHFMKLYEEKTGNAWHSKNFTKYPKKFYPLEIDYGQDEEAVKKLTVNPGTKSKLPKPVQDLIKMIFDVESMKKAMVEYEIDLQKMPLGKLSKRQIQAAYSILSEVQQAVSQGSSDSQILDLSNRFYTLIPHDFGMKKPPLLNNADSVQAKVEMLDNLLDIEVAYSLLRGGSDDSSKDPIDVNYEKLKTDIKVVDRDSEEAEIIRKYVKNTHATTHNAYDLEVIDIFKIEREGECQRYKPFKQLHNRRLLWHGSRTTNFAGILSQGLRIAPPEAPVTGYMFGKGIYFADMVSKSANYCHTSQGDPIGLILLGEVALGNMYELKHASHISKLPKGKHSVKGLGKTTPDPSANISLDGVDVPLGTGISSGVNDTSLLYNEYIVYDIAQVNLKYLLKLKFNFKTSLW", "settings": "cited from earlier work; for EC50: read-out: EC50 for PARP1 inhibition"}, "MCF-7 brca1+/+ cells": {"tested_on": "MCF-7 brca1+/+ cells", "settings": "10 μM, 10 consecutive days; cited from earlier work"}, "[2]": {"tested_on": "CAPANI cells (which are deficient in brca2)", "settings": "cited from earlier work"}, "[3]": {"tested_on": "MCF-7 breast cancer cells", "assay": "Survival of MCF-7 cells after single application (cell count, microscopy)", "type": "cell-based, human", "settings": "for MCF-7 survival: 48 to 72 hours, 10 μM PJ-34, Tiq-A 100 μM, Phen 50 μM; for killing of MCF-7 cells: Example 7, single application 24 h after seeding, Tiq-A 50/100 μM 72 h, Phen 25 μM 48 h / 50 μM 72 h", "experimental": "Cells were cultured in 6-wells multi-dish plates (Nunc Denmark). MCF-7 and MDA231 cells were cultured in 6-wells multi-dish plates (Nunc Denmark). MCF-7 and MDA231 cells were maintained in a medium containing DMEM (cat #01055-1A), 10% Horse serum (cat #04-124-1A), 1% L-Glutamine (cat #03-020-1B), and 1% Pen-Strep Ampho (cat #03-033-1B) (Gibco, Invitrogene, purchased from Rhenium, Jerusalem 91035 Israel.\nMCF-7 cells were seeded (about 50,000/well) in 6-well plates. […]. […] […].\nThe effect of PARP inhibitors on MCF-7 and MDA-MB-231 human breast cancer cells was examined (cells were seeded in about 500,000 cells/[…] well in six-well plates). […]. The damage was irreversible. […]. […] […]."}, "[4]": {"tested_on": "MDA-MB-231 xenotransplants", "assay": "MDA-MB-231 xenotransplants in nude mice, PJ-34 by subcutaneous osmotic pump", "type": "in vivo, mouse", "settings": "PJ-34 treated, tumor-free mice", "experimental": "Xenotransplants were developed in female CD-1 nu/nu 5 to 6 weeks old. MCF-7 and MDA 231 cells were injected subcutaneously, about 10^7 MCF-7 or MDA231 cells in 150 μl of PBS and 150 μl of Martigel Basement Membrane Matrix Becton Dickinson, Bedford, Mass., USA; In Israel Bactolab Diagnostics). In mice treated with PJ-34, injection was adjacent to subcutaneous osmotic pumps dripping PJ-34 by a slow release. The mice were maintained under specific pathogen-free conditions with access to mouse chow and water ad libitum. […]. Subcutaneous implantation of these pumps was performed before injection by a veterinarian (Dr. Kastel David). All the experiments with nude mice conform to the Guide for the Care and Use of Laboratory Animals published by the NIH (publication No. 85-23, revised 1996). Approval was granted by the Israeli Ministry of Health ethics review board in the Tel-AvivUniversity (M08033).\nIn vivo experiments were carried out in nude female mice (nu/nu) injected subcutaneously with MCF-7 or MDA-MB-231 cells (FIG. 15). […]. In the control nude mice, pumps contained only PBS, or pumps were not implanted. Each mouse was injected subcutaneously with approximately 10^7 MCF-7 or MDA-MB-231 cells dispersed in Matrigel. Tumors developed within 6 to 7 weeks in the control mice injected with MCF-7 cells and within 10 days in the control mice injected with MDA231 cells. […]"}, "[5]": {"assay": "Tolerability of slow-release PJ-34 in nude mice", "type": "in vivo", "experimental": ". In vivo experiments were carried out in nude female mice (nu/nu) injected subcutaneously with MCF-7 or MDA-MB-231 cells (FIG. 15). […]. In the control nude mice, pumps contained only PBS, or pumps were not implanted. Each mouse was injected subcutaneously with approximately 10^7 MCF-7 or MDA-MB-231 cells dispersed in Matrigel. Tumors developed within 6 to 7 weeks in the control mice injected with MCF-7 cells and within 10 days in the control mice injected with MDA231 cells. One mouse died 3 weeks after being injected with MDA-MB-231 cells. […]"}, "[6]": {"tested_on": "extra-centrosomes de-clustering in human cancer cells", "assay": "Extra-centrosomes de-clustering", "type": "cell-based"}, "U-87 Glioblastoma cells": {"tested_on": "U-87 Glioblastoma cells", "assay": "Viability of U-87 glioblastoma cells (FACS)", "type": "cell-based, human", "settings": "0.5-30 μM, single application; 72 and 96 h (PJ-34), 96 h (Phen, Tiq-A)", "experimental": "The malignant U-87 Glioblastoma cells were incubated with these molecules applied once 24 hours after seeding. Cell viability was measured by FACS. The results of 3 different experiments carried in duplicates are presented."}, "[7]": {"tested_on": "MDA-MB-231 xenotransplants", "assay": "MDA-MB-231 xenotransplants in nude mice, PJ-34 intra-peritoneal", "type": "in vivo, mouse", "settings": "50 mg/kg PJ-34 i.p. daily for 14 days, started at palpable tumors; individual treated mice (untreated 750 and 850); HCl", "experimental": "In vivo experiments were carried out in nude female mice (nu/nu) injected subcutaneously with MDA-MB-231 cells (FIG. 32). […] About 10^6 cells were injected in 100 μl of MEM (Gibco, Rhenium, Jerusalem Israel) and 100 μl of Matrigel Basement Membrane Matrix (Becton Dickinson, Bedford, Mass., USA; In Israel, Bactolab Diagnostics). Two weeks after injection with MDA-MB-231 cells, palpable (50-80 mm^3) tumors developed in all the female nude mice. One pair of mice remained un-treated. […] Tumors' size was measured every day in all the mice (both treated and untreated). The treated mice were photographed on the first day and on the last day of treatment. Tumor sizes were 750 mm^3 and 850 mm^3 in the untreated mice, versus 130 mm^3 and 150 mm^3 in the treated mice."}, "brain cortical neurons": {"tested_on": "brain cortical neurons", "assay": "Effect on quiescent cells: brain cortical neurons", "type": "cell-based", "settings": "10 to 30 μM PJ-34, 100 μM Tiq-A, 50 μM Phen"}, "cardiomyocytes": {"tested_on": "cardiomyocytes", "assay": "Effect on quiescent cells: cardiomyocytes", "type": "cell-based", "settings": "10 to 30 μM PJ-34, 100 μM Tiq-A, 50 μM Phen"}, "[8]": {"tested_on": "MDA-MB-231 breast cancer cells", "assay": "Survival of MDA-MB-231 cells after single application", "description": "Each value is an average value of three measurements obtained in three different experiments."}, "[9]": {"tested_on": "HCC1937 (triple negative, BRCA deficient) human breast cancer cells", "assay": "Combination of MEK and PARP inhibitors on HCC1937 cells", "type": "cell-based", "settings": "48 hours; PJ-34 5 or 10 μM or Tiq-A 50 μM with 5 μM U0126"}, "HSET": {"molecular_target": "T2, HSET (Homo sapiens, UniProt Q9BW19)", "T2 sequence (Q9BW19 1-673)": "T1 sequence (Q9BW19 1-673)", "assay": "Post translational modification of HSET in MDA-MB-231 cells (pI shift, 2-D gel electrophoresis)", "type": "cell-based", "settings": "ABT888 at 5-20 μM", "experimental": "Post translational modifications of HSET in MDA-MB-231 breast cancer cells (FIG. 24B-I) were measured by the shifts in its isoelectric point (pI). […] Also, HSET is not modified in normal epithelial cells MCF10A. The vertical lines mark the point of loading of the proteins including HSET in the cell extracts. The arrows mark the shifted pI of HSET. In untreated MDA-MB-231 cells, the largest shift in pI of HSET was to pH 5.6 in the untreated MDA-MB-231 cells."}}, "note": "“And” between values parts separate entries of the source, which are not always exact repeats. Identical values can stand only once. Counter-ions that a name gives are not always drawn.", "data": [{"smiles": "C[C@]1(c2nc3c(C(N)=O)cccc3[nH]2)CCCN1", "note": "[ABT888, reference compound]", "values": [{"measurement": "binding of γ-tubulin to kinesin-14/HSET", "setting": "[1]", "result": "did not affect the binding"}, {"measurement": "co-immunoprecipitation of α-tubulin with γ-tubulin", "setting": "α-tubulin with γ-tubulin", "result": "not"}]}, {"smiles": "CN(C)Cc1ccc(-c2nc3cccc4c3n2CCNC4=O)cc1", "note": "[AG14361, reference compound]", "values": [{"measurement": "Ki", "setting": "PARP-1; PARP-1", "result": "< 0.005", "unit": "µM"}, {"measurement": "cells eradicated", "setting": "MCF-7 brca1+/+ cells", "result": 50, "unit": "%"}]}, {"smiles": "O=C1CCC(=O)N1c1cc(Cc2n[nH]c(=O)c3ccccc23)ccc1F", "note": "[KU0058684]", "values": [{"measurement": "inhibition of CAPANI cells", "setting": "[2]", "result": "inhibited"}]}, {"smiles": "Cc1nc2c(O)cccc2c(=O)[nH]1", "note": "[NU1025]", "values": [{"measurement": "inhibition of CAPANI cells", "setting": "[2]", "result": "not inhibited"}]}, {"smiles": "CN(C)CC(=O)Nc1ccc2[nH]c(=O)c3ccccc3c2c1", "note": "[PJ-34, N-(6-oxo-5,6-dihydro-phenanthridin-2-yl)-N,N-dimethylacetamide, HCl]", "values": [{"measurement": "cell death", "setting": "[3]; 48 hours after single application of 10-20 μM PJ-34", "result": "more than 99.5%"}, {"measurement": "MCF-7 cells eradicated", "setting": "[3]; 48 hours of incubation with 10 μM PJ-34", "result": "More than 99%"}, {"measurement": "survival of the other 3 treated mice", "setting": "[4]", "result": "more than 4 months"}, {"measurement": "viability, growth or behavior of the mice", "setting": "[5]; 3 months after 14-day osmotic pump treatment (Example 6)", "result": "did not affect viability, growth or behavior"}, {"measurement": "vitality, growth, development, or any other behavior of treated mice", "setting": "[5]; 14-day slow release of PJ-34, follow-up periods (Example 11)", "result": "did not affect the vitality, growth, development, or any other behavior"}, {"measurement": "concentration at which PJ-34 acts as centrosomes de-clustering agent", "setting": "[6]", "result": "above 20 microM"}, {"measurement": "cytotoxicity in glioblastoma cancer cells", "setting": "U-87 Glioblastoma cells", "result": "cytotoxic in glioblastoma cancer cells at high concentrations"}, {"measurement": "Tumor sizes", "setting": "[7]", "result": "130 mm^3 and 150 mm^3"}]}, {"smiles": "O=c1[nH]c2ccccc2c2ccccc12", "note": "[Phen, 6-(5H)-phenanthridinone]", "values": [{"measurement": "MCF-7 survival", "setting": "[3]", "result": "did not survive"}, {"measurement": "killing of MCF-7 cells", "setting": "[3]", "result": "efficient in killing MCF-7 cells"}, {"measurement": "impairment of quiescent cells", "setting": "brain cortical neurons", "result": "not impaired at all"}, {"measurement": "impairment of quiescent cells", "setting": "cardiomyocytes", "result": "not impaired at all"}, {"measurement": "binding of γ-tubulin to kinesin-14/HSET", "setting": "[1]", "result": "interfered with the binding"}, {"measurement": "cytotoxicity in glioblastoma cancer cells", "setting": "U-87 Glioblastoma cells", "result": "cytotoxic in glioblastoma cancer cells at high concentrations"}, {"measurement": "EC50", "setting": "PARP-1", "result": 0.12, "unit": "µM"}, {"measurement": "killing of MDA-MB-231 breast cancer cells", "setting": "[8]", "result": "efficient killing"}]}, {"smiles": "O=c1[nH]c2sccc2c2ccccc12", "note": "[Tiq-A, 4H-thieno[2,3-c]isoquinolin-5-one]", "values": [{"measurement": "MCF-7 survival", "setting": "[3]", "result": "did not survive"}, {"measurement": "killing of MCF-7 cells", "setting": "[3]", "result": "efficient in killing MCF-7 cells"}, {"measurement": "impairment of quiescent cells", "setting": "brain cortical neurons", "result": "not impaired at all"}, {"measurement": "impairment of quiescent cells", "setting": "cardiomyocytes", "result": "not impaired at all"}, {"measurement": "effect of combination with MEK inhibitor U0126 versus each inhibitor alone", "setting": "[9]", "result": "synergistic effect"}, {"measurement": "post translational modification of HSET (pI shift)", "setting": "HSET", "result": "prevent the post translational modification"}, {"measurement": "binding of γ-tubulin to kinesin-14/HSET", "setting": "[1]", "result": "interfered with the binding"}, {"measurement": "cytotoxicity in glioblastoma cancer cells", "setting": "U-87 Glioblastoma cells", "result": "cytotoxic in glioblastoma cancer cells at high concentrations"}, {"measurement": "EC50", "setting": "PARP-1", "result": 0.45, "unit": "µM"}, {"measurement": "killing of MDA-MB-231 breast cancer cells", "setting": "[8]", "result": "efficient killing"}]}]}
